Source: US8889876B2, “Histone deacetylase inhibitors and uses thereof” (Jiangsu Hengyi Pharmaceutical Co., Ltd., priority 2008, dated 2014)

How the values were obtained:
Type in all cases: cell-based
[1] = system: A549 human lung cancer cells; assay: CCK-8 proliferation inhibition, A549; conditions: CCK-8 method; for inhibition at 10 µM / inhibition at 100 µM: Homo sapiens, A549
Method: (§1) Detecting the inhibition rate of the compound concentrations of 100 μM and 10 μM to Hut78 T-cell Leukemia cell, Jurkat E6-1 human T-cell lymphoma, PANC-1 human pancreatic cancer cells, A549 human lung cancer cells, K562 human chronic myeloid leukemia cells, Hep3B2.1-7 human liver cancer cells, MDA-MB-435s human breast cancer cells, Colo320 human rectal cancer cells and PC-3 human prostate cancer using CCK-8 method.

[2] = system: PANC-1 human pancreatic cancer cells; assay: CCK-8 proliferation inhibition, PANC-1; conditions: for inhibition at 10 µM / inhibition at 100 µM: Homo sapiens; for inhibition at 10 µM: PANC-1, 10 μM; for inhibition at 100 µM: PANC-1, 100 μM
Method: as §1

[3] = system: PC-3 human prostate cancer; assay: CCK-8 proliferation inhibition, PC-3; conditions: CCK-8 method; for inhibition at 10 µM / inhibition at 100 µM: Homo sapiens
Method: as §1

[4] = system: Jurkat E6-1 human T-cell lymphoma; assay: CCK-8 proliferation inhibition, Jurkat E6-1; conditions: for inhibition at 10 µM / inhibition at 100 µM: Homo sapiens; for inhibition at 10 µM: Jurkat E6.1, 10 μM; for inhibition at 100 µM: Jurkat E6.1, 100 μM
Method: as §1

[5] = system: MDA-MB-435s human breast cancer cells; assay: CCK-8 proliferation inhibition, MDA-MB-435s; conditions: CCK-8 method; for inhibition at 10 µM / inhibition at 100 µM: Homo sapiens, MDA-MB-435S
Method: as §1

[6] = system: Colo320 human rectal cancer cells; assay: CCK-8 proliferation inhibition, Colo320; conditions: CCK-8 method; for inhibition at 10 µM / inhibition at 100 µM: Homo sapiens, COLO 320
Method: as §1

[7] = system: Hut78 T-cell Leukemia cell; assay: CCK-8 proliferation inhibition, Hut78; conditions: for inhibition at 10 µM / inhibition at 100 µM: Homo sapiens, read-out: Hut-78 (inhibition %); for inhibition at 10 µM: HuT78, 10 μM; for inhibition at 100 µM: HuT78, 100 μM
Method: as §1

[8] = system: Hep3B2.1-7 human liver cancer cells; assay: CCK-8 proliferation inhibition, Hep3B2.1-7; conditions: CCK-8 method; for inhibition at 10 µM / inhibition at 100 µM: Homo sapiens, Hep3B
Method: as §1

[9] = system: K562 human chronic myeloid leukemia cells; assay: CCK-8 proliferation inhibition, K562; conditions: for inhibition at 10 µM / inhibition at 100 µM: Homo sapiens; for inhibition at 10 µM: K562, 10 μM; for inhibition at 100 µM: K562, 100 μM
Method: as §1

Row | Molecule | inhibition at 10 µM ([1]; compound concentration 10 μM) | inhibition at 100 µM ([1]; compound concentration 100 μM) | inhibition at 10 µM [2] | inhibition at 100 µM [2] | inhibition at 10 µM ([3]; compound concentration 10 μM) | inhibition at 100 µM ([3]; compound concentration 100 μM) | inhibition at 10 µM [4] | inhibition at 100 µM [4] | inhibition at 10 µM ([5]; compound concentration 10 μM) | inhibition at 100 µM ([5]; compound concentration 100 μM) | inhibition at 10 µM ([6]; compound concentration 10 μM) | inhibition at 100 µM ([6]; compound concentration 100 μM) | inhibition at 10 µM [7] | inhibition at 100 µM [7] | inhibition at 10 µM ([8]; compound concentration 10 μM) | inhibition at 100 µM ([8]; compound concentration 100 μM) | inhibition at 10 µM [9] | inhibition at 100 µM [9] | other results
1 | Nc1cnccc1NC(=O)c1ccc(CNC(=O)OCc2ccc(F)cc2)cc1 [V-20] | -17.6% | 72.2% | -2.8% | 15.7% | 22.9% | 84.4% | 23.8% | 96.5% | 19.5% | 63.9% | -14.3% | 82.7% | 22% | 91.1% | 7.2% | 79.3% | 34% | 88.7% | –
2 | Nc1ncccc1NC(=O)c1ccc(CNC(=O)CCc2ccc(F)cc2)cc1 [V-60, N-(2-amino-3-pyridyl)-4-[3-(4-fluorophenyl)propionylaminomethyl]benzamide] | 3.7% | 12.2% | 27.3% | 26.1% | 1% | 8.1% | 11% | 33.3% | -7.8% | -3.4% | -5.4% | 2.3% | 11.8% | 28.5% | 9.9% | 31.7% | 14.6% | 42.7% | –
3 | Cc1ccc(COC(=O)NCc2ccc(C(=O)Nc3ccncc3N)cc2)cc1 [V-10] | -16.9% | 45.7% | 16.9% | 19.7% | 23.7% | 56% | 27.2% | 93.3% | 8% | 79.1% | -5.5% | 59.2% | 15.5% | 66.6% | -7% | 57.5% | 53.6% | 87.2% | –
4 | Nc1cnccc1NC(=O)c1ccc(CNC(=O)CCc2ccccc2)cc1 [V-49] | -9.5% | 39.9% | -6.1% | 7.3% | 28.3% | 53.8% | 28.4% | 93.7% | 10.3% | 51.9% | -2.5% | 33.8% | 2.3% | 54.4% | 11% | 63.4% | 22.1% | 71% | –
5 | Nc1ncccc1NC(=O)c1ccc(CNC(=O)CCc2ccccc2)cc1 [V-48, N-(2-amino-3-pyridyl)-4-[(3-phenylpropionyl)aminomethyl]benzamide] | 3.9% | 9.8% | -2.2% | -1.8% | -16.4% | 14.8% | 9.7% | 61.9% | 10% | 26.6% | 2.9% | 17.9% | -0.4% | 47.4% | -14% | 20.5% | 20% | 57.2% | –
6 | COc1ccc(CCC(=O)NCc2ccc(C(=O)Nc3cccnc3N)cc2)cc1 [V-52, N-(2-amino-3-pyridyl)-4-[3-(4-methoxyphenyl)propionylaminomethyl]benzamide] | 9.8% | 9.9% | 13.3% | 17.7% | -7.4% | 24.7% | 7.6% | 73.8% | 13.9% | 22.8% | 8% | 17.7% | 6.5% | 50.8% | 19% | 78.6% | 29% | 67.3% | –
7 | COc1ccc(/C=C/C(=O)NCc2ccc(C(=O)Nc3ccncc3N)cc2)cc1OC [V-94] | 9.1% | 58.4% | 6% | 27.3% | 54.2% | 87.8% | 65.6% | 95.6% | 15.1% | 77% | -6.4% | 17.8% | 12.9% | 66.7% | 4.5% | 69.4% | 35% | 85.7% | –
8 | Cc1ccc(/C=C/C(=O)NCc2ccc(C(=O)Nc3cccnc3N)cc2)cc1 [V-27, N-(2-amino-3-pyridyl)-4-[(4-methylcinnamoyl)aminomethyl]benzamide] | 6.3% | 37.3% | 20.2% | 26.2% | 50.2% | 61% | 58.3% | 80.9% | 33% | 77% | 12.9% | 40.1% | 43% | 77% | 25.4% | 49.9% | 54.3% | 85.8% | –
9 | N-(2-amino-3-pyridyl)-4-[(2-naphthylmethoxyacyl)aminomethyl)benzamide [V-23] | – | – | – | – | – | – | – | – | – | – | – | – | – | – | – | – | – | – | A549 (inhibition %) ([1]; compound concentration 10 μM): 4.7%; A549 (inhibition %) ([1]; compound concentration 100 μM): 3.5%; PANC-1 (inhibition %) ([2]; 10 μM): 7.2%; PANC-1 (inhibition %) ([2]; 100 μM): 0.5%; PC-3 (inhibition %) ([3]; compound concentration 10 μM): 10.9%; PC-3 (inhibition %) ([3]; compound concentration 100 μM): 8.6%; Jurkat E6-1 (inhibition %) ([4]; 10 μM): 33.7%; Jurkat E6-1 (inhibition %) ([4]; 100 μM): 13.9%; 435s(inhibition %) ([5]; compound concentration 10 μM): 21.6%; 435s(inhibition %) ([5]; compound concentration 100 μM): 21.0%; Colo320 (inhibition %) ([6]; compound concentration 10 μM): 15.3%; Colo320 (inhibition %) ([6]; compound concentration 100 μM): 3.9%; Hut-78 (inhibition %) ([7]; 10 μM): 20.7%; Hut-78 (inhibition %) ([7]; 100 μM): 10.4%; Hep3B (inhibition %) ([8]; compound concentration 10 μM): 16.3%; Hep3B (inhibition %) ([8]; compound concentration 100 μM): 11.2%; K562 (inhibition %) ([9]; 10 μM): 27.2%; K562 (inhibition %) ([9]; 100 μM): 11.9%
10 | Nc1ncccc1NC(=O)c1ccc(CNC(=O)/C=C/c2ccc3ccccc3c2)cc1 [V-46, N-(2-amino-3-pyridyl)-4-(2-naphthylacryloylaminomethyl)benzamide] | 7.7% | 4.1% | 8.1% | 0.4% | -1.7% | -2.4% | 14.8% | 1.9% | 16.4% | 4.1% | 13.7% | -9% | 16.4% | 13.4% | 17.5% | -5% | 27.3% | 18.9% | –
